Reference: the NIST ThermoML archive (doi:10.1016/j.jct.2011.08.016)
Numbers after ± are expanded uncertainties.

Test: xn = mol fraction of the nth substance listed
Settings: Liquid, Vibrating tube method

CCCCCCCCCC [decane] + CCCCCCCC
Settings	mass density [kg/m3]
363.03 K, 7000 kPa, x2 = 0.0616	682.5 ± 0.45
363.03 K, 8000 kPa, x2 = 0.0616	683.6 ± 0.45
363.03 K, 9000 kPa, x2 = 0.0616	684.68 ± 0.46
363.03 K, 10000 kPa, x2 = 0.0616	685.7 ± 0.46
363.03 K, 10990 kPa, x2 = 0.0616	686.75 ± 0.47
363.03 K, 12000 kPa, x2 = 0.0616	687.8 ± 0.47
363.03 K, 13000 kPa, x2 = 0.0616	688.75 ± 0.48
363.03 K, 14000 kPa, x2 = 0.0616	689.77 ± 0.49
363.03 K, 15000 kPa, x2 = 0.0616	690.77 ± 0.49
363.03 K, 16000 kPa, x2 = 0.0616	691.73 ± 0.5
363.03 K, 17000 kPa, x2 = 0.0616	692.68 ± 0.51
363.03 K, 18000 kPa, x2 = 0.0616	693.63 ± 0.51
363.03 K, 19000 kPa, x2 = 0.0616	694.55 ± 0.52
363.03 K, 20000 kPa, x2 = 0.0616	695.46 ± 0.53
363.03 K, 21000 kPa, x2 = 0.0616	696.37 ± 0.53
363.03 K, 22000 kPa, x2 = 0.0616	697.23 ± 0.54
363.03 K, 23000 kPa, x2 = 0.0616	698.12 ± 0.55
363.03 K, 24000 kPa, x2 = 0.0616	699 ± 0.55
363.03 K, 25000 kPa, x2 = 0.0616	699.81 ± 0.56
363.05 K, 1000 kPa, x2 = 0.2801	670.18 ± 0.42
363.05 K, 2000 kPa, x2 = 0.2801	671.39 ± 0.42
363.05 K, 3000 kPa, x2 = 0.2801	672.48 ± 0.43
363.05 K, 4000 kPa, x2 = 0.2801	673.67 ± 0.43
363.05 K, 5000 kPa, x2 = 0.2801	674.81 ± 0.44
363.05 K, 6000 kPa, x2 = 0.2801	675.97 ± 0.44
363.05 K, 7000 kPa, x2 = 0.2801	677.07 ± 0.45
363.05 K, 8000 kPa, x2 = 0.2801	678.19 ± 0.45
363.05 K, 9000 kPa, x2 = 0.2801	679.28 ± 0.46
363.05 K, 10000 kPa, x2 = 0.2801	680.35 ± 0.47
363.05 K, 10990 kPa, x2 = 0.2801	681.42 ± 0.47
363.05 K, 12000 kPa, x2 = 0.2801	682.49 ± 0.48
363.05 K, 13000 kPa, x2 = 0.2801	683.53 ± 0.48
363.05 K, 14000 kPa, x2 = 0.2801	684.56 ± 0.49
363.05 K, 15000 kPa, x2 = 0.2801	685.57 ± 0.5
363.05 K, 16000 kPa, x2 = 0.2801	686.57 ± 0.5
363.05 K, 17000 kPa, x2 = 0.2801	687.56 ± 0.51
363.05 K, 18000 kPa, x2 = 0.2801	688.51 ± 0.52
363.05 K, 19000 kPa, x2 = 0.2801	689.47 ± 0.52
363.05 K, 20000 kPa, x2 = 0.2801	690.38 ± 0.53
363.05 K, 21000 kPa, x2 = 0.2801	691.33 ± 0.54
363.05 K, 22000 kPa, x2 = 0.2801	692.19 ± 0.54
363.05 K, 23000 kPa, x2 = 0.2801	693.06 ± 0.55
363.05 K, 24000 kPa, x2 = 0.2801	693.94 ± 0.56
363.05 K, 25000 kPa, x2 = 0.2801	694.78 ± 0.57
363.07 K, 1000 kPa, x2 = 0.7736	654.79 ± 0.42
363.07 K, 1000 kPa, x2 = 0.9623	647.67 ± 0.43
363.07 K, 2000 kPa, x2 = 0.7736	656.13 ± 0.43
363.07 K, 2000 kPa, x2 = 0.9623	649.03 ± 0.43
363.07 K, 3000 kPa, x2 = 0.7736	657.39 ± 0.43
363.07 K, 3000 kPa, x2 = 0.9623	650.38 ± 0.44
363.07 K, 4000 kPa, x2 = 0.7736	658.68 ± 0.44
363.07 K, 4000 kPa, x2 = 0.9623	651.7 ± 0.44
363.07 K, 5000 kPa, x2 = 0.7736	659.92 ± 0.45
363.07 K, 5000 kPa, x2 = 0.9623	652.98 ± 0.45
363.07 K, 6000 kPa, x2 = 0.7736	661.18 ± 0.45
363.07 K, 6000 kPa, x2 = 0.9623	654.25 ± 0.45
363.07 K, 7000 kPa, x2 = 0.7736	662.38 ± 0.46
363.07 K, 7000 kPa, x2 = 0.9623	655.52 ± 0.46
363.07 K, 8000 kPa, x2 = 0.7736	663.57 ± 0.46
363.07 K, 8000 kPa, x2 = 0.9623	656.76 ± 0.47
363.07 K, 9000 kPa, x2 = 0.7736	664.75 ± 0.47
363.07 K, 9000 kPa, x2 = 0.9623	658 ± 0.47
363.07 K, 10000 kPa, x2 = 0.7736	665.92 ± 0.48
363.07 K, 10000 kPa, x2 = 0.9623	659.23 ± 0.48
363.07 K, 10990 kPa, x2 = 0.7736	667.06 ± 0.48
363.07 K, 10990 kPa, x2 = 0.9623	660.42 ± 0.49
363.07 K, 12000 kPa, x2 = 0.7736	668.19 ± 0.49
363.07 K, 12000 kPa, x2 = 0.9623	661.58 ± 0.49
363.07 K, 13000 kPa, x2 = 0.7736	669.32 ± 0.5
363.07 K, 13000 kPa, x2 = 0.9623	662.75 ± 0.5
363.07 K, 14000 kPa, x2 = 0.7736	670.41 ± 0.5
363.07 K, 14000 kPa, x2 = 0.9623	663.87 ± 0.51
363.07 K, 15000 kPa, x2 = 0.7736	671.49 ± 0.51
363.07 K, 15000 kPa, x2 = 0.9623	664.99 ± 0.51
363.07 K, 16000 kPa, x2 = 0.7736	672.56 ± 0.52
363.07 K, 16000 kPa, x2 = 0.9623	666.07 ± 0.52
363.07 K, 17000 kPa, x2 = 0.7736	673.6 ± 0.52
363.07 K, 17000 kPa, x2 = 0.9623	667.17 ± 0.53
363.07 K, 18000 kPa, x2 = 0.7736	674.63 ± 0.53
363.07 K, 18000 kPa, x2 = 0.9623	668.2 ± 0.54
363.07 K, 19000 kPa, x2 = 0.7736	675.61 ± 0.54
363.07 K, 19000 kPa, x2 = 0.9623	669.26 ± 0.54
363.07 K, 20000 kPa, x2 = 0.7736	676.63 ± 0.55
363.07 K, 20000 kPa, x2 = 0.9623	670.29 ± 0.55
363.07 K, 21000 kPa, x2 = 0.7736	677.57 ± 0.55
363.07 K, 21000 kPa, x2 = 0.9623	671.3 ± 0.56
363.07 K, 22000 kPa, x2 = 0.7736	678.47 ± 0.56
363.07 K, 22000 kPa, x2 = 0.9623	672.27 ± 0.57
363.07 K, 23000 kPa, x2 = 0.7736	679.43 ± 0.57
363.07 K, 23000 kPa, x2 = 0.9623	673.14 ± 0.58
363.07 K, 24000 kPa, x2 = 0.7736	680.34 ± 0.58
363.07 K, 24000 kPa, x2 = 0.9623	674.08 ± 0.58
363.07 K, 25000 kPa, x2 = 0.7736	681.28 ± 0.58
363.07 K, 25000 kPa, x2 = 0.9623	674.98 ± 0.59
